According to publication PMC7180572, “5-Alkylamino-N-phenylpyrazine-2-carboxamides: Design, Preparation, and Antimycobacterial Evaluation” (Molecules, 2020):
pIC50: −log10 of the molar value. In brackets after ≈: the same amount, converted by molar mass. Read-outs that look alike come from different tables or passages of the source.

Legend:
[1] = test system: Aspergillus fumigatus ATCC 204305; experiment: Antifungal microdilution broth method (EUCAST); type: cell-based; conditions: read-out: MIC AF
[2] = test system: Absidia corymbifera CCM 8077 (Lichtheimia corymbifera); experiment: Antifungal microdilution broth method (EUCAST); type: cell-based; conditions: read-out: MIC AC
[3] = test system: Candida albicans ATCC 24433, CCM 8320; experiment: Antifungal microdilution broth method (EUCAST); type: cell-based
[4] = test system: Candida tropicalis ATCC 750, CCM 8264; experiment: Antifungal microdilution broth method (EUCAST); type: cell-based; conditions: read-out: MIC CT
[5] = test system: Candida krusei ATCC 6258, CCM 8271; experiment: Antifungal microdilution broth method (EUCAST); type: cell-based; conditions: Pichia kudriavzevii
[6] = test system: Trichophyton interdigitale ATCC 9533, CCM 8377; experiment: Antifungal microdilution broth method (EUCAST); type: cell-based; conditions: read-out: MIC TI
[7] = test system: Staphylococcus aureus methicillin resistant ATCC 43300, CCM 4750; experiment: microbe, parasite or virus in culture; type: cell-based; conditions: ATCC 43300 / CCM 4750 / MRSA, read-out: MIC MRSA
[8] = test system: Enterococcus faecalis ATCC 29212, CCM 4224; experiment: Antibacterial microdilution broth method (EUCAST); type: cell-based; conditions: read-out: MIC EF
[9] = test system: HepG2 cells; experiment: HepG2 cytotoxicity, CellTiter 96 (MTS) assay; type: cell-based, human; conditions: for pIC50: Homo sapiens, HepG2, 24 h, read-out: HepG2 IC50; for SI, selectivity index: IC50 (HepG2)/MIC against Mtb H37Ra (in µM)
[10] = test system: Candida parapsilosis ATCC 22019, CCM 8260; experiment: Antifungal microdilution broth method (EUCAST); type: cell-based; conditions: Lodderomyces parapsilosis
[11] = test system: Escherichia coli ATCC 25922, CCM 3954; experiment: Antibacterial microdilution broth method (EUCAST); type: cell-based; conditions: read-out: MIC EC
[12] = test system: Mycobacterium tuberculosis H37Ra ITM-M006710 (ATCC 9431); experiment: Microdilution broth, modified Microplate Alamar Blue Assay, whole cell growth inhibition; type: cell-based; conditions: Mycobacterium tuberculosis; in vitro, Middlebrook 7H9 broth, resazurin; read-out: MIC Mtb H37Ra
[13] = test system: Aspergillus flavus CCM 8363; experiment: Antifungal microdilution broth method (EUCAST); type: cell-based; conditions: read-out: MIC AFla
[14] = test system: Acinetobacter baumanii ATCC 19606, DSM 30007; experiment: Antibacterial microdilution broth method (EUCAST); type: cell-based; conditions: Acinetobacter baumannii
[15] = test system: Mycobacterium aurum DSM 43999 (ATCC 23366); experiment: Microdilution broth, modified Microplate Alamar Blue Assay, whole cell growth inhibition; type: cell-based; conditions: Mycolicibacterium aurum, read-out: MIC Mycobacterium aurum
[16] = test system: Mycobacterium smegmatis DSM 43465 (ATCC 607); experiment: as above; type: cell-based; conditions: Mycolicibacterium smegmatis, read-out: MIC Mycobacterium smegmatis
[17] = test system: Pseudomonas aeruginosa ATCC 27853, CCM 3955; experiment: Antibacterial microdilution broth method (EUCAST); type: cell-based; conditions: read-out: MIC PA
[18] = test system: Staphylococcus epidermidis ATCC 12228, CCM 4418; experiment: Antibacterial microdilution broth method (EUCAST); type: cell-based; conditions: read-out: MIC SE
[19] = test system: Staphylococcus aureus spp.aureus ATCC 29213, CCM 4223; experiment: Antibacterial microdilution broth method (EUCAST); type: cell-based; conditions: read-out: MIC SA
[20] = test system: Klebsiella pneumoniae ATCC 10031, CCM 4415; experiment: Antibacterial microdilution broth method (EUCAST)

Structure (SMILES): CCCCCNc1cnc(C(=O)Nc2cccc(C(F)(F)F)c2)cn1 [Compound 1c, 5-(Pentylamino)-N-(3-(trifluoromethyl)phenyl)pyrazine-2-carboxamide]
- MIC ([1]; ATCC204305, 24 h): > 125 µM
- MIC ([1]; ATCC204305, 48 h): > 125 µM
- MIC ([2]; CCM8077, 24 h): > 125 µM
- MIC ([2]; CCM8077, 48 h): > 125 µM
- MIC ([3]; 24 h, read-out: MIC CA): > 125 µM
- MIC ([3]; 48 h, read-out: MIC CA): > 125 µM
- MIC ([3]; read-out: MIC CA (Candida albicans)): > 125 µM
- MIC ([4]; 24 h): > 125 µM
- MIC ([4]; 48 h): > 125 µM
- MIC ([5]; 24 h, read-out: MIC CK): 62.5 µM (≈ 22 µg/mL)
- MIC ([5]; 48 h, read-out: MIC CK): 62.5 µM (≈ 22 µg/mL)
- MIC ([5]; read-out: MIC CK (Candida krusei)): 62.5 µM (≈ 22 µg/mL)
- MIC ([6]; 72 h): > 125 µM
- MIC ([6]; 120 h): > 125 µM
- MIC ([7]; 24 h): > 500 µM
- MIC ([7]; 48 h): > 500 µM
- MIC ([8]; 24 h): > 500 µM
- MIC ([8]; 48 h): > 500 µM
- pIC50 [9]: 4.72
- SI, selectivity index [9]: 2.13
- MIC ([10]; 24 h, read-out: MIC CP): 125 µM (≈ 44 µg/mL)
- MIC ([10]; 48 h, read-out: MIC CP): 125 µM (≈ 44 µg/mL)
- MIC ([10]; read-out: MIC CP (Candida parapsilosis)): 125 µM (≈ 44 µg/mL)
- MIC ([11]; 24 h): > 500 µM
- MIC ([11]; 48 h): > 500 µM
- MIC [12]: 3.13 µg/mL (≈ 8.88 µM)
- MIC ([13]; CCM8363, 24 h): > 125 µM
- MIC ([13]; CCM8363, 48 h): > 125 µM
- MIC ([14]; 24h): > 500 µM
- MIC ([14]; 48h): > 500 µM
- MIC [15]: 3.13 µg/mL (≈ 8.88 µM)
- MIC [16]: 1.56 µg/mL (≈ 4.43 µM)
- MIC ([17]; 72 h): > 500 µM
- MIC ([17]; 120 h): > 500 µM
- MIC ([18]; 24 h): > 500 µM
- MIC ([18]; 48 h): > 500 µM
- MIC ([19]; 24 h): > 500 µM
- MIC ([19]; 48 h): > 500 µM
- MIC KP ([20]; 24h): > 500 µM
- MIC KP ([20]; 48h): > 500 µM
- melting point: 128 to 129 °C

Structure (SMILES): CCCCNc1cnc(C(=O)Nc2cccc(O)c2)cn1 [Compound 2b, 5-(Butylamino)pyrazine-N-(3-hydroxyphenyl)-2-carboxamide]
- MIC ([1]; ATCC204305, 24 h): > 125 µM
- MIC ([1]; ATCC204305, 48 h): > 125 µM
- MIC ([2]; CCM8077, 24 h): > 125 µM
- MIC ([2]; CCM8077, 48 h): > 125 µM
- MIC ([3]; 24 h, read-out: MIC CA): > 125 µM
- MIC ([3]; 48 h, read-out: MIC CA): > 125 µM
- MIC ([4]; 24 h): > 125 µM
- MIC ([4]; 48 h): > 125 µM
- MIC ([5]; 24 h, read-out: MIC CK): > 125 µM
- MIC ([5]; 48 h, read-out: MIC CK): > 125 µM
- MIC ([6]; 72 h): > 125 µM
- MIC ([6]; 120 h): > 125 µM
- MIC ([7]; 24 h): > 500 µM
- MIC ([7]; 48 h): > 500 µM
- MIC ([8]; 24 h): > 500 µM
- MIC ([8]; 48 h): > 500 µM
- pIC50 [9]: < 4.60
- SI, selectivity index [9]: >0.92
- MIC ([10]; 24 h, read-out: MIC CP): > 125 µM
- MIC ([10]; 48 h, read-out: MIC CP): > 125 µM
- MIC ([11]; 24 h): > 500 µM
- MIC ([11]; 48 h): > 500 µM
- MIC [12]: 7.81 µg/mL (≈ 27.3 µM)
- MIC ([13]; CCM8363, 24 h): > 125 µM
- MIC ([13]; CCM8363, 48 h): > 125 µM
- MIC ([14]; 24h): > 500 µM
- MIC ([14]; 48h): > 500 µM
- MIC [15]: ≥ 500 µg/mL
- MIC [16]: ≥ 500 µg/mL
- MIC ([17]; 72 h): > 500 µM
- MIC ([17]; 120 h): > 500 µM
- MIC ([18]; 24 h): > 500 µM
- MIC ([18]; 48 h): > 500 µM
- MIC ([19]; 24 h): > 500 µM
- MIC ([19]; 48 h): > 500 µM
- MIC KP ([20]; 24h): > 500 µM
- MIC KP ([20]; 48h): > 500 µM
- melting point: 203 to 204 °C
